Laboratory results reported in publication PMC6301270 (MedChemComm, 2018).

Test system: T.b. brucei (strain 427) bloodstream form parasites
Assay: T.b. brucei single concentration screen (10 μM)
Conditions: Trypanosoma brucei, read-out: T.b.brucei % viability (10 µM)

| SMILES | viability at 10 µM |
| --- | --- |
| CNCCC(Oc1ccc(C(F)(F)F)cc1)c1ccccc1 (centres unmarked) [Compound 33, CNCCC(Oc1ccc(cc1)C(F)(F)F)c2ccccc2] | 2.4% |
| CN1CCCC1CCO[C@](C)(c1ccccc1)c1ccc(Cl)cc1 (some centres unmarked) [Compound 62, ClC1=CC=C([C@@](C)(C2=CC=CC=C2)OCCC3N(C)CCC3)C=C1] | 2% |
| COc1cccc(-n2nnnc2S(C)(=O)=O)c1 [Compound 63, COc1cccc(c1)n2nnnc2S(=O)(=O)C] | 103% |
| CC(C)(C)c1cnc(NC(=O)c2ccccc2O)s1 [Compound 64, CC(C)(C)c1cnc(NC(=O)c2ccccc2O)s1] | 77% |
| Nc1nc2cc(-c3cncc(Oc4ccc(F)cc4)c3)ccc2[nH]1 [Compound 65, Nc1nc2ccc(cc2[nH]1)c3cncc(Oc4ccc(F)cc4)c3] | 14% |
| O=C(Nc1ccc(N2CCNCC2)cc1)c1ccn2ncc(-c3cccc(Cl)c3)c2n1 [Compound 67, Clc1cccc(c1)c2cnn3ccc(nc23)C(=O)Nc4ccc(cc4)N5CCNCC5] | 1% |
| O=C(NCCc1ccccc1)c1cc(-c2cccnc2)cnc1NCC1CC1 [Compound 68, O=C(NCCc1ccccc1)c2cc(cnc2NCC3CC3)c4cccnc4] | 79% |
| Cc1[nH]c2ccccc2c1C(c1cccs1)N1CCN(C)CC1 (centres unmarked) [Compound 69, CN1CCN(CC1)C(c2cccs2)c3c(C)[nH]c4ccccc34] | 29% |
| O=S(=O)(c1ccc(Cl)cc1)N1CCN(C(=S)NCc2ccco2)CC1 [MMV000858, Clc1ccc(cc1)S(=O)(=O)N2CCN(CC2)C(=S)NCc3occc3] | 97% |
| COc1cccc2c(C)nc(N=C(N)N)nc12 [MMV000907, COc1cccc2c(C)nc(N=C(N)N)nc12] | 79% |
| CCCS(=O)(=O)N1CCC(CO)(Cc2ccccc2C(F)(F)F)CC1 [MMV001059, CCCS(=O)(=O)N1CCC(CO)(Cc2ccccc2C(F)(F)F)CC1] | 87% |
| COC(=O)C1=C(C)NC(C)=C(C(=O)OC(C)C)C1c1cccc2nonc12 (centres unmarked) [MMV001493, COC(=O)C1=C(C)NC(=C(C1c2cccc3nonc23)C(=O)OC(C)C)C] | 97% |
| CN1CCCN(C(c2ccccc2)c2ccc(Cl)cc2)CC1 (centres unmarked) [MMV004168, CN1CCCN(CC1)C(c2ccccc2)c3ccc(Cl)cc3] | 55% |
| O=C1Nc2ccc(Br)cc2C12NCCc1c2[nH]c2ccccc12 (centres unmarked) [MMV006239, Brc1ccc2NC(=O)C3(NCCc4c3[nH]c5ccccc45)c2c1] | 106% |
| Cc1ccc2[nH]c3c(NCCN(C)C)ncnc3c2c1 [MMV006372, CN(C)CCNc1ncnc2c3cc(C)ccc3[nH]c12] | 86% |
| COc1cc2ncnc(NC3CCN(Cc4ccccc4)CC3)c2cc1OC [MMV006741, COc1cc2ncnc(NC3CCN(Cc4ccccc4)CC3)c2cc1OC] | 103% |
| Cc1cc(Cl)c(S(=O)(=O)N2CCCC2)cc1OCC(=O)NC1CCCCC1 [MMV006833, Cc1cc(Cl)c(cc1OCC(=O)NC2CCCCC2)S(=O)(=O)N3CCCC3] | 98% |
| Cc1cc(NC(=O)c2ccc(S(=O)(=O)N(Cc3ccccc3)C(C)C)cc2)no1 [MMV007133, CC(C)N(Cc1ccccc1)S(=O)(=O)c2ccc(cc2)C(=O)Nc3cc(C)on3] | 98% |
| COc1cc(OC)cc(C(=O)NCC2Cc3cc(Cl)cc(-c4ccncc4)c3O2)c1 (centres unmarked) [MMV007471, COc1cc(OC)cc(c1)C(=O)NCC2Cc3cc(Cl)cc(c3O2)c4ccncc4] | 74% |
| Cc1cc(C)n(-c2ccc(NC(=O)C3CCN(Cc4cnc(C)s4)CC3)cc2)n1 [MMV007625, Cc1cc(C)n(n1)c2ccc(NC(=O)C3CCN(Cc4cnc(C)s4)CC3)cc2] | 65% |
| CCOc1ccc(-c2nc(NC(=O)CS(=O)(=O)c3ccccc3)sc2C)cc1 [MMV007638, CCOc1ccc(cc1)c2nc(NC(=O)CS(=O)(=O)c3ccccc3)sc2C] | 73% |

| SMILES | viability at 10 µM |
| --- | --- |
| O=C(NC1CC1)c1ccc(CSCc2ccccc2Cl)o1 [MMV007803, Clc1ccccc1CSCc2oc(cc2)C(=O)NC3CC3] | 101% |
| Nc1ccc(C(=O)Nc2ccc(-c3nc4ccccc4o3)cc2)cc1 [MMV007920, Nc1ccc(cc1)C(=O)Nc2ccc(cc2)c3oc4ccccc4n3] | 83% |
| COc1ccc(CN2CCOc3ccc(C(C)(O)CN(C)C)cc3C2)cc1C (centres unmarked) [MMV008439, COc1ccc(CN2CCOc3ccc(cc3C2)C(C)(O)CN(C)C)cc1C] | 94% |
| Cc1cc(C(=O)Nc2cnn(Cc3ccc(Cl)cc3Cl)c2)no1 [MMV009054, Cc1onc(c1)C(=O)Nc2cnn(Cc3ccc(Cl)cc3Cl)c2] | 89% |
| O=C(C1CCN(c2nnnn2-c2ccccc2)CC1)N1CCc2ccccc2C1 [MMV009135, O=C(C1CCN(CC1)c2nnnn2c3ccccc3)N4CCc5ccccc5C4] | 94% |
| COc1ccc(-c2cnc3ccc(NCc4ccc(S(N)(=O)=O)cc4)nn23)cn1 [MMV010545, COc1ccc(cn1)c2cnc3ccc(NCc4ccc(cc4)S(=O)(=O)N)nn23] | 97% |
| c1csc(-c2cnc3sc(NCC4CCOCC4)nn23)c1 [MMV010764, C(Nc1nn2c(cnc2s1)c3cccs3)C4CCOCC4] | 94% |
| Cc1cc(Nc2ccc(C(F)(F)F)cc2)n2ccnc2n1 [MMV011229, CC1=NC2=NC=CN2C(NC3=CC=C(C(F)(F)F)C=C3)=C1] | 89% |
| COc1ccc(CCN2CCC(NCc3cccc(N(C)C)c3)CC2)cc1 [MMV011511, COc1ccc(CCN2CCC(CC2)NCc3cccc(c3)N(C)C)cc1] | 66% |
| NCC(=O)N1CCn2c(nc(-c3ccccc3)c2Nc2ccc3c(c2)OCO3)C1 [MMV011691, NCC(=O)N1CCn2c(C1)nc(c2Nc3ccc4OCOc4c3)c5ccccc5] | 120% |
| FC(F)(F)c1cnc(Sc2nnc(-c3ccncc3)o2)c(Cl)c1 [MMV011765, FC(F)(F)c1cnc(Sc2oc(nn2)c3ccncc3)c(Cl)c1] | 85% |
| Cc1ccc(NC(=O)c2nc[nH]c2C(=O)Nc2nc3ccccc3[nH]2)c(C)c1 [MMV011903, Cc1ccc(NC(=O)c2nc[nH]c2C(=O)Nc3nc4ccccc4[nH]3)c(C)c1] | 10% |
| Cc1nc2ccccn2c1C(=O)NCc1ccc(Cl)cc1 [MMV012074, Cc1nc2ccccn2c1C(=O)NCc3ccc(Cl)cc3] | 102% |
| Cc1cc(Nc2ccncc2)n2nc(C)c(-c3ccccc3Cl)c2n1 [MMV016136, Cc1cc(Nc2ccncc2)n3nc(C)c(c4ccccc4Cl)c3n1] | 113% |
| Cc1ccc(-c2cc(C(=O)Nc3cccnc3)c3cc(Br)ccc3n2)cc1 [MMV016838, Cc1ccc(cc1)-c1cc(c2cc(ccc2n1)Br)C(=O)Nc1cccnc1] | 87% |
| Cc1cc(C)n2nc(C(=O)Nc3cc(C(F)(F)F)ccc3N3CCOCC3)nc2n1 [MMV019087, Cc1cc(C)n2nc(nc2n1)C(=O)Nc3cc(ccc3N4CCOCC4)C(F)(F)F] | 74% |
| COc1ccc(C2CC(c3cccs3)=NN2C(=O)c2ccco2)cc1OC (centres unmarked) [MMV019234, COc1ccc(cc1OC)C2CC(=NN2C(=O)c3occc3)c4cccs4] | 107% |
| CCC(NC(=O)c1ccccc1NC(=O)c1ccc(C)cc1)C(=O)OC (centres unmarked) [MMV019551, CCC(NC(=O)c1ccccc1NC(=O)c2ccc(C)cc2)C(=O)OC] | 97% |
| CCN(CC)S(=O)(=O)c1ccc(Cl)c(C(=O)Nc2ccc3nc(C)sc3c2)c1 [MMV019721, CCN(CC)S(=O)(=O)c1ccc(Cl)c(c1)C(=O)Nc2ccc3nc(C)sc3c2] | 62% |
| Cc1ccc(S(=O)(=O)N2CCN(C(=O)c3cc(-c4ccccc4)[nH]n3)CC2)cc1 [MMV019742, Cc1ccc(cc1)S(=O)(=O)N2CCN(CC2)C(=O)c3cc([nH]n3)c4ccccc4] | 96% |
